Laboratory results published in US20140171316A1, “ANTHRANILAMIDE COMPOUNDS AND THEIR USE AS PESTICIDES” (BASF SE, priority 2011, published 2014).

Legend:
Type in all cases: in vivo
[1] = test system: Heliothis virescens; assay: Tobacco budworm (Heliothis virescens) microtiter plate insect diet test; conditions: 120 h, sprayed onto insect diet, 5 days, read-out: mortality in comparison with untreated controls (egg and larval mortality)
Protocol: For evaluating control of tobacco budworm (Heliothis virescens) the test unit consisted of 96-well-microtiter plates containing an insect diet and 15-25 H. virescens eggs.
The compounds were formulated using a solution containing 75% v/v water and 25% v/v DMSO. Different concentrations of formulated compounds were sprayed onto the insect diet at 10 μl, using a custom built micro atomizer, at two replications.
(§1) After application, microtiter plates were incubated at about 28±1° C. and about 80±5% relative humidity for 5 days. Egg and larval mortality was then visually assessed.

[2] = test system: Aphis craccivora; assay: Cowpea aphid (Aphis craccivora) spray test on potted cowpea plants; conditions: sprayed cowpea plants, assessed after 72 hours, read-out: mortality in comparison with untreated controls
Protocol: The active compound was dissolved at the desired concentration in a mixture of 1:1 (vol:vol) distilled water:acetone. Surfactant (Alkamuls® EL 620) is added at a rate of 0.1% (vol/vol). The test solution was prepared at the day of use.
Potted cowpea plants were colonized with approximately 50-100 aphids of various stages by manually transferring a leaf tissue cut from infested plant 24 hours before application. Plants were sprayed after the pest population has been recorded. Treated plants were maintained on light carts at about 28° C. Percent mortality was assessed after 72 hours.

[3] = test system: Anthonomus grandis; assay: Boll weevil (Anthonomus grandis) microtiter plate insect diet test; conditions: 120 h, sprayed onto insect diet, 5 days, read-out: mortality in comparison with untreated controls (egg and larval mortality)
Protocol: For evaluating control of boll weevil (Anthonomus grandis) the test unit consisted of 24-well-microtiter plates containing an insect diet and 20-30 A. grandis eggs.
The compounds were formulated using a solution containing 75% v/v water and 25% v/v DMSO. Different concentrations of formulated compounds were sprayed onto the insect diet at 20 μl, using a custom built micro atomizer, at two replications.
After application, microtiter plates were incubated at about 23±1° C. and about 50±5% relative humidity for 5 days. Egg and larval mortality was then visually assessed.

[4] = test system: Megoura viciae; assay: Vetch aphid (Megoura viciae) broad bean leaf disk test; conditions: foliar, 120 h, sprayed broad bean leaf disks, adult aphids, 5 days, read-out: mortality in comparison with untreated controls
Protocol: For evaluating control of vetch aphid (Megoura viciae) through contact or systemic means the test unit consisted of 24-well-microtiter plates containing broad bean leaf disks.
The compounds were formulated using a solution containing 75% v/v water and 25% v/v DMSO. Different concentrations of formulated compounds were sprayed onto the leaf disks at 2.5 μl, using a custom built micro atomizer, at two replications.
After application, the leaf disks were air-dried and 5-8 adult aphids placed on the leaf disks inside the microtiter plate wells. The aphids were then allowed to suck on the treated leaf disks and incubated at about 23±1° C. and about 50±5% relative humidity for 5 days. Aphid mortality and fecundity was then visually assessed.

[5] = test system: Myzus persicae; assay: Green peach aphid (Myzus persicae) spray test on bell pepper plants; conditions: 120 h, sprayed infested bell pepper plants, after 5 days, read-out: mortality in comparison with untreated controls
Source text: The active compounds were formulated in cyclohexanone as a 10,000 ppm solution supplied in tubes. The tubes were inserted into an automated electrostatic sprayer equipped with an atomizing nozzle and they served as stock solutions for which lower dilutions were made in 50% acetone:50% water (v/v). A nonionic surfactant (Kinetic®) was included in the solution at a volume of 0.01% (v/v).
Bell pepper plants at the first true-leaf stage were infested prior to treatment by placing heavily infested leaves from the main colony on top of the treatment plants. Aphids were allowed to transfer overnight to accomplish an infestation of 30-50 aphids per plant and the host leaves were removed. The infested plants were then sprayed by an automated electrostatic plant sprayer equipped with an atomizing spray nozzle. The plants were dried in the sprayer fume hood, removed, and then maintained in a growth room under fluorescent lighting in a 24-hr photoperiod at about 25° C. and about 20-40% relative humidity. Aphid mortality on the treated plants, relative to mortality on untreated control plants, was determined after 5 days.

[6] = test system: Ceratitis capitata; assay: Mediterranean fruitfly (Ceratitis capitata) microtiter plate insect diet test; conditions: 120 h, sprayed onto insect diet, 5 days, read-out: mortality in comparison with untreated controls (egg and larval mortality)
Protocol: For evaluating control of Mediterranean fruitfly (Ceratitis capitata) the test unit consisted of microtiter plates containing an insect diet and 50-80 C. capitata eggs.
The compounds were formulated using a solution containing 75% v/v water and 25% v/v DMSO. Different concentrations of formulated compounds were sprayed onto the insect diet at 5 μl, using a custom built micro atomizer, at two replications.
as §1

[7] = test system: Dichromothrips corbetti; assay: Orchid thrips (Dichromothrips corbetti) floral-immersion test; conditions: dipped orchid flowers, adult thrips, 72 hours after treatment, read-out: mortality in comparison with untreated controls
Protocol: Dichromothrips corbetti adults used for bioassay were obtained from a colony maintained continuously under laboratory conditions. For testing purposes, the test compound was diluted in a 1:1 mixture of acetone:water (vol:vol), plus 0.01% vol/vol Alkamuls® EL 620 surfactant.
Thrips potency of each compound was evaluated by using a floral-immersion technique. Plastic petri dishes were used as test arenas. All petals of individual, intact orchid flowers were dipped into treatment solution and allowed to dry. Treated flowers were placed into individual petri dishes along with about 20 adult thrips. The petri dishes were then covered with lids. All test arenas were held under continuous light and a temperature of about 28° C. for duration of the assay. After 3 days, the numbers of live thrips were counted on each flower, and along inner walls of each petri dish. The percent mortality was recorded 72 hours after treatment.

CNC(=O)c1cc(-n2cncn2)cc(C)c1NC(=O)c1cnn(CC(F)(F)F)c1-c1ncccc1Cl [Compound 1-2, 5-(3-chloro-2-pyridyl)-N-[2-methyl-6-(methylcarbamoyl)-4-(1,2,4-triazol-1-yl)phenyl]-1-(2,2,2-trifluoroethyl)pyrazole-4-carboxamide]
> 75%: mortality at 2500 ppm [1] | mortality at 500 ppm [2] | mortality at 2500 ppm [3] | mortality at 2500 ppm [4] | mortality at 2500 ppm [5] | mortality at 2500 ppm [6] | mortality at 500 ppm [7]

CNC(=O)c1cc(/C=N/OC)cc(C)c1NC(=O)c1cnn(CC(F)(F)F)c1-c1ncccc1Cl [Compound 1-1, 5-(3-chloro-2-pyridyl)-N-[4-[(E)-methoxyiminomethyl]-2-methyl-6-(methylcarbamoyl)phenyl]-1-(2,2,2-trifluoroethyl)pyrazole-4-carboxamide]
> 75%: mortality at 2500 ppm [1] | mortality at 500 ppm [2] | mortality at 2500 ppm [3] | mortality at 2500 ppm [4] | mortality at 2500 ppm [5] | mortality at 2500 ppm [6] | mortality at 500 ppm [7]
